Results as given in patent US7612211B2, “Benzimidazole TRPV1 inhibitors” (Janssen Pharmaceutica N.V., priority 2006, dated 2009).
pIC50: −log10 of the molar value.

Target: T1, hTRPV1 (Homo sapiens, UniProt Q8NER1)
T1 construct: expressed in transfected cells; host or cells: HEK293
Assay: Human TRPV1 (hTRPV1) functional assay, FLIPR intracellular Ca2+, capsaicin challenge
Format: cell-based
Conditions: HEK293 cells expressing hTRPV1, capsaicin 0.030 μM challenge; for pIC50: derived from a variety of test concentrations, read-out: IC50 value (symbol c); for inhibition at 0.2 µM: test concentration of 0.2 μm, read-out: percent inhibition (symbol b); for inhibition at 0.5 µM: test concentration of 0.5 μm, read-out: percent inhibition (symbol a)
Experimental: The functional activity of the test compounds was determined by measuring changes in intracellular calcium concentration using a Ca^++-sensitive fluorescent dye and FLIPR™ technology. Increases in Ca^++ concentration were readily detected upon challenge with capsaicin.
HEK293 cells expressing hTRPV1 were grown on poly-D-lysine coated 384 well black-walled plates (BD 354663) and 1 day later loaded with Calcium 3 Dye for 35 min at 37° C., 5% CO2 and then for 25 min at room temperature, and subsequently tested for agonist-induced increases in intracellular Ca^2+ levels using FLIPR™ technology. Cells were challenged with test compounds (at varying concentrations) and intracellular Ca^2+ was measured for 5 min prior to the addition of capsaicin to all wells to achieve a final concentration of 0.030 μM eliciting ˜80% maximal response.
EC50 or IC50 values were determined from concentration-response studies, which were generated using the average of quadruplicate wells for each data point. The symbol “a” represents percent inhibition obtained at a test concentration of 0.5 μm; the symbol “b” represents percent inhibition obtained at a test concentration of 0.2 μm; the symbol “c” represents an IC50 value (nM) derived from a variety of test concentrations. The term “NA” means that the result is not applicable for a particular compound.

T1 sequence (Q8NER1 whole entry): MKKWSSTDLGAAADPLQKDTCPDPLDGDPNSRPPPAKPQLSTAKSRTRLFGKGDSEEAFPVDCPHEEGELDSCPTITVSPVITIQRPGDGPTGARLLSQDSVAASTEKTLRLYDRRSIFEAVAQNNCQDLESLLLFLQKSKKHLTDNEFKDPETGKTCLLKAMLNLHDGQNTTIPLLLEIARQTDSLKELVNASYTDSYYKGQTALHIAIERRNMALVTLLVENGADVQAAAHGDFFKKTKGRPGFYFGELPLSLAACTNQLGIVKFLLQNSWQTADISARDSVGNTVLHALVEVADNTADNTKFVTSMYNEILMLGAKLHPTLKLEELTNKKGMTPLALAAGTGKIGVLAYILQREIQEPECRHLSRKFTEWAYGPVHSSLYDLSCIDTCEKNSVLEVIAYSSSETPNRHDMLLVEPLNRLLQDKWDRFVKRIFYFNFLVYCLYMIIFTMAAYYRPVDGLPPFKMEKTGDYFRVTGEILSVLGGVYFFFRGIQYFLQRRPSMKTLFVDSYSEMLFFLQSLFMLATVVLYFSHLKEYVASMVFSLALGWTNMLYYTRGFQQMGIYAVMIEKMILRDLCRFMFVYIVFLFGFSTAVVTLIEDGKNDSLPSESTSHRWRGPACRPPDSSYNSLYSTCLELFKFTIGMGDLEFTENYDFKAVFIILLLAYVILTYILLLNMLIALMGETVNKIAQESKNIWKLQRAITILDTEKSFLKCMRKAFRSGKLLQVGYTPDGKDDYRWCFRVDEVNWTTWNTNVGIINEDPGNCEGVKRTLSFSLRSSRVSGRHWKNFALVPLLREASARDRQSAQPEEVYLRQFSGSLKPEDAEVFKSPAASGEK

| pIC50 | inhibition at 0.2 µM [%] | inhibition at 0.5 µM [%] | Structure (SMILES) |
| --- | --- | --- | --- |
| 7.51 | 96 | – | Cc1ccc(OCc2nc3cc(-c4ccccc4S(C)(=O)=O)ccc3[nH]2)cc1 [Cpd 76, 5-(2-methanesulfonyl-phenyl)-2-p-tolyloxymethyl-1H-benzoimidazole] |
| 8.52 | 100 | – | CC(C)c1ccc(OCc2nc3cc(-c4ccccc4S(C)(=O)=O)ccc3[nH]2)cc1 [Cpd 77, 2-(4-isopropyl-phenoxymethyl)-5-(2-methanesulfonyl-phenyl)-1H-benzoimidazole] |
| 8.52 | 98 | – | CC(C)(C)c1ccc(OCc2nc3cc(-c4ccccc4S(C)(=O)=O)ccc3[nH]2)cc1 [Cpd 78, 2-(4-tert-butyl-phenoxymethyl)-5-(2-methanesulfonyl-phenyl)-1H-benzoimidazole] |
| – | 61 | – | CC(=O)c1ccc(OCc2nc3cc(-c4ccccc4S(C)(=O)=O)ccc3[nH]2)cc1 [Cpd 79, 1-{4-[5-(2-methanesulfonyl-phenyl)-1H-benzoimidazol-2-ylmethoxy]-phenyl}-ethanone] |
| 7.85 | 99 | – | CS(=O)(=O)c1ccccc1-c1ccc2[nH]c(COc3ccc4ccccc4c3)nc2c1 [Cpd 80, 5-(2-methanesulfonyl-phenyl)-2-(naphthalen-2-yloxymethyl)-1H-benzoimidazole] |
| 7.07 | 96 | – | CCOc1ccc(OCc2nc3cc(-c4ccccc4S(C)(=O)=O)ccc3[nH]2)cc1 [Cpd 81, 2-(4-ethoxy-phenoxymethyl)-5-(2-methanesulfonyl-phenyl)-1H-benzoimidazole] |
| 8.15 | 99 | – | CS(=O)(=O)c1ccccc1-c1ccc2[nH]c(COc3ccc(SC(F)(F)F)cc3)nc2c1 [Cpd 82, 5-(2-methanesulfonyl-phenyl)-2-(4-trifluoromethanesulfide-phenoxymethyl)-1H-benzoimidazole] |
| – | 51 | – | CS(=O)(=O)c1ccccc1-c1ccc2[nH]c(COc3ccc(C#N)cc3)nc2c1 [Cpd 83, 4-[5-(2-methanesulfonyl-phenyl)-1H-benzoimidazol-2-ylmethoxy]-benzonitrile] |
| – | 12 | – | CS(=O)(=O)c1ccc(OCc2nc3cc(-c4ccccc4S(C)(=O)=O)ccc3[nH]2)cc1 [Cpd 85, 2-(4-methanesulfonyl-phenoxymethyl)-5-(2-methanesulfonyl-phenyl)-1H-benzoimidazole] |
| 7.85 | 96 | – | CS(=O)(=O)c1ccccc1-c1ccc2[nH]c(COc3ccc4c(c3)CCCC4)nc2c1 [Cpd 87, 5-(2-methanesulfonyl-phenyl)-2-(5,6,7,8-tetrahydro-naphthalen-2-yloxymethyl)-1H-benzoimidazole] |
| – | 36 | – | COC(=O)CCc1ccc(OCc2nc3cc(-c4ccccc4S(C)(=O)=O)ccc3[nH]2)cc1 [Cpd 88, 3-{4-[5-(2-methanesulfonyl-phenyl)-1H-benzoimidazol-2-ylmethoxy]-phenyl}-propionic acid methyl ester] |
| 7.28 | 90 | – | Cc1ccc(OCc2nc3cc(-c4ccccc4S(C)(=O)=O)ccc3[nH]2)c(C)c1 [Cpd 89, 2-(2,4-dimethyl-phenoxymethyl)-5-(2-methanesulfonyl-phenyl)-1H-benzoimidazole] |
| – | 31 | – | Cc1cc(C)cc(OCc2nc3cc(-c4ccccc4S(C)(=O)=O)ccc3[nH]2)c1 [Cpd 90, 2-(3,5-dimethyl-phenoxymethyl)-5-(2-methanesulfonyl-phenyl)-1H-benzoimidazole] |
| 7.68 | 99 | – | CS(=O)(=O)c1ccccc1-c1ccc2[nH]c(COc3ccc4c(c3)CCC4)nc2c1 [Cpd 91, 2-(indan-5-yloxymethyl)-5-(2-methanesulfonyl-phenyl)-1H-benzoimidazole] |
| 7.07 | 76 | – | CS(=O)(=O)c1ccccc1-c1ccc2[nH]c(COc3ccc4c(c3)OCO4)nc2c1 [Cpd 92, 2-(benzo[1,3]dioxol-5-yloxymethyl)-5-(2-methanesulfonyl-phenyl)-1H-benzoimidazole] |
| – | 11 | – | CS(=O)(=O)c1ccccc1-c1ccc2[nH]c(COc3cc(Cl)cc(Cl)c3)nc2c1 [Cpd 93, 2-(3,5-dichloro-phenoxymethyl)-5-(2-methanesulfonyl-phenyl)-1H-benzoimidazole] |
| – | 1 | – | CC(=O)Nc1cccc(OCc2nc3cc(-c4ccccc4S(C)(=O)=O)ccc3[nH]2)c1 [Cpd 94, N-{3-[5-(2-methanesulfonyl-phenyl)-1H-benzoimidazol-2-ylmethoxy]-phenyl}-acetamide] |
| – | 1 | – | CC(=O)Nc1ccc(OCc2nc3cc(-c4ccccc4S(C)(=O)=O)ccc3[nH]2)cc1 [Cpd 95, N-{4-[5-(2-methanesulfonyl-phenyl)-1H-benzoimidazol-2-ylmethoxy]-phenyl}-acetamide] |
| – | 6 | – | COc1ccc(OCc2nc3cc(-c4ccccc4S(C)(=O)=O)ccc3[nH]2)cc1 [Cpd 96, 5-(2-methanesulfonyl-phenyl)-2-(4-methoxy-phenoxymethyl)-1H-benzoimidazole] |
| – | 42 | – | COc1cccc(OCc2nc3cc(-c4ccccc4S(C)(=O)=O)ccc3[nH]2)c1 [Cpd 97, 5-(2-methanesulfonyl-phenyl)-2-(3-methoxy-phenoxymethyl)-1H-benzoimidazole] |
| – | – | 14 | CS(=O)(=O)c1cccc(-c2ccc3[nH]c(COc4ccc(C(F)(F)F)cc4)nc3c2)c1 [Cpd 99, 5-(3-methanesulfonyl-phenyl)-2-(4-trifluoromethyl-phenoxymethyl)-1H-benzoimidazole] |
| – | – | 13 | CS(=O)(=O)c1ccc(-c2ccc3[nH]c(COc4ccc(C(F)(F)F)cc4)nc3c2)cc1 [Cpd 100, 5-(4-methanesulfonyl-phenyl)-2-(4-trifluoromethyl-phenoxymethyl)-1H-benzoimidazole] |
| – | – | 8 | CS(=O)(=O)Nc1cccc(-c2ccc3[nH]c(COc4ccc(C(F)(F)F)cc4)nc3c2)c1 [Cpd 102, N-{3-[2-(4-trifluoromethyl-phenoxymethyl)-1H-benzoimidazol-5-yl]-phenyl}-methanesulfonamide] |
| – | – | 7 | CS(=O)(=O)Nc1ccc(-c2ccc3[nH]c(COc4ccc(C(F)(F)F)cc4)nc3c2)cc1 [Cpd 103, N-{4-[2-(4-trifluoromethyl-phenoxymethyl)-1H-benzoimidazol-5-yl]-phenyl}-methanesulfonamide] |
| – | – | 8 | NS(=O)(=O)c1cccc(-c2ccc3[nH]c(COc4ccc(C(F)(F)F)cc4)nc3c2)c1 [Cpd 104, 3-[2-(4-trifluoromethyl-phenoxymethyl)-1H-benzoimidazol-5-yl]-benzenesulfonamide] |
| – | – | 7 | NS(=O)(=O)c1ccc(-c2ccc3[nH]c(COc4ccc(C(F)(F)F)cc4)nc3c2)cc1 [Cpd 105, 4-[2-(4-trifluoromethyl-phenoxymethyl)-1H-benzoimidazol-5-yl]-benzenesulfonamide] |
| 8.52 | – | 94 | CN(C)S(=O)(=O)c1ccccc1-c1ccc2[nH]c(COc3ccc(C(F)(F)F)cc3)nc2c1 [Cpd 106, N,N-dimethyl-2-[2-(4-trifluoromethyl-phenoxymethyl)-1H-benzoimidazol-5-yl]-benzenesulfonamide] |
| – | – | 16 | Cc1ccccc1-c1ccc2[nH]c(COc3ccc(C(F)(F)F)cc3)nc2c1 [Cpd 107, 5-o-tolyl-2-(4-trifluoromethyl-phenoxymethyl)-1H-benzoimidazole] |
